Laboratory results from paper PMC11129182, “Development of Inhibitors, Probes, and PROTAC Provides a Complete Toolbox to Study PARK7 in the Living Cell” (Journal of Medicinal Chemistry, 2024).
Where two headings read alike, the source gives them in different places.

Target: T1, PARK7 (Homo sapiens, UniProt Q99497)
T1 sequence (Q99497 1-189): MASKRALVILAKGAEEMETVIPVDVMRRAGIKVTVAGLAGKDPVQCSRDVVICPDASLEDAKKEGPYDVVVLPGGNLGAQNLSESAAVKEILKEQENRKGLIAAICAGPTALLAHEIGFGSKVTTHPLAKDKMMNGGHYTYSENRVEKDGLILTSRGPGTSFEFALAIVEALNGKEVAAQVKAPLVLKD
Assay: High-throughput screen of the crude compound library, PARK7 fluorescence polarization (FP) assay with FP reagent JYQ-107
Type: biochemical
Details: read-out: HTS FP assay %Inhibition (1.25 µM)

[1] = 1.25 µM, crude compound library
[2] = 1.25 µM, crude compound library, FP reagent JYQ-107

Row | inhibition at 1.25 µM [1] | SMILES | also measured
1 | 78.3% | N#CN1CC[C@@H](C(=O)Nc2nc3c(s2)CN(C(=O)Cc2coc(-c4ccccc4)n2)CC3)C1 [compound 52] | 
2 |  | N#CN1CC[C@@H](C(=O)Nc2nc3c(s2)CN(C(=O)c2cc(C=O)ccc2O)CC3)C1 [compound 427] | inhibition at 1.25 µM [2]: 63.9%
3 | 74% | N#CN1CC[C@@H](C(=O)Nc2nc3c(s2)CN(C(=O)c2nc(C4CC4)ncc2Br)CC3)C1 [compound 255] | 
4 |  | N#CN1CC[C@@H](C(=O)Nc2nc3c(s2)CN(C(=O)Cc2csc(-c4ccccc4)n2)CC3)C1 [compound 346] | inhibition at 1.25 µM [2]: 61.9%
5 |  | CSCCC(NC(C)=O)C(=O)N1CCc2nc(NC(=O)[C@@H]3CCN(C#N)C3)sc2C1 (stereo partly shown) [compound 388] | inhibition at 1.25 µM [2]: -53.2%
6 | 72.2% | N#CN1CC[C@@H](C(=O)Nc2nc3c(s2)CN(C(=O)c2cc(N4CCOCC4)ccn2)CC3)C1 [compound 201] | 
7 |  | N#CN1CC[C@@H](C(=O)Nc2nc3c(s2)CN(C(=O)c2ccc(CBr)cc2)CC3)C1 [compound 414] | inhibition at 1.25 µM [2]: -19.6%
8 | 50.6% | N#CN1CC[C@@H](C(=O)Nc2nc3c(s2)CN(C(=O)C2CCCN2C(=O)c2ccncc2)CC3)C1 (stereo partly shown) [compound 206] | 
9 |  | N#CN1CC[C@@H](C(=O)Nc2nc3c(s2)CN(C(=O)CCc2ccccc2Br)CC3)C1 [compound 430] | inhibition at 1.25 µM [2]: 87.5%
10 | 80.8% | N#CN1CC[C@@H](C(=O)Nc2nc3c(s2)CN(C(=O)C2CCOC4(CCC4)C2)CC3)C1 (stereo partly shown) [compound 136] | 
11 | 69.7% | N#CN1CC[C@@H](C(=O)Nc2nc3c(s2)CN(C(=O)c2snnc2-c2ccc(Br)cc2)CC3)C1 [compound 42] | 
12 | 58.7% | N#CN1CC[C@@H](C(=O)Nc2nc3c(s2)CN(C(=O)c2sccc2S(=O)(=O)NCc2ccco2)CC3)C1 [compound 236] | 
13 | 75.4% | Cc1cc(C)c(C(=O)N2CCc3nc(NC(=O)[C@@H]4CCN(C#N)C4)sc3C2)c(OCC2CCCCC2)n1 [compound 47] | 
14 |  | N#CN1CC[C@@H](C(=O)Nc2nc3c(s2)CN(C(=O)c2ccc(S(=O)(=O)N4CCCCCC4)cc2)CC3)C1 [compound 387] | inhibition at 1.25 µM [2]: 74.8%
15 | 82.7% | Cc1noc(C)c1COc1ccc(CC(=O)N2CCc3nc(NC(=O)[C@@H]4CCN(C#N)C4)sc3C2)cc1 [compound 107] | 
16 | 72.8% | COCC1CCN(c2ccc(C(=O)N3CCc4nc(NC(=O)[C@@H]5CCN(C#N)C5)sc4C3)cc2)C1 (stereo partly shown) [compound 229] | 
17 | 68.4% | N#CN1CC[C@@H](C(=O)Nc2nc3c(s2)CN(C(=O)C2CCN(Cc4ccc(Cl)s4)CC2)CC3)C1 [compound 23] | 
18 |  | N#CCC(=O)N1CCc2nc(NC(=O)[C@@H]3CCN(C#N)C3)sc2C1 [compound 457] | inhibition at 1.25 µM [2]: 49.3%
19 | 94.8% | N#CN1CC[C@@H](C(=O)Nc2nc3c(s2)CN(C(=O)c2ccc(F)c(S(=O)(=O)N4CCC4)c2)CC3)C1 [compound 221] | 
20 | 67.1% | CC(C(=O)N1CCc2nc(NC(=O)[C@@H]3CCN(C#N)C3)sc2C1)n1ccc(C2CC2)n1 (stereo partly shown) [compound 239] | 
21 | 81% | N#CN1CC[C@@H](C(=O)Nc2nc3c(s2)CN(C(=O)c2cc(S(=O)(=O)N4CCOCC4)c[nH]2)CC3)C1 [compound 115] | 
22 | 73% | N#CN1CC[C@@H](C(=O)Nc2nc3c(s2)CN(C(=O)c2cnoc2-c2cccs2)CC3)C1 [compound 20] | 

Row | inhibition at 1.25 µM [1] | SMILES | also measured
23 |  | N#CN1CC[C@@H](C(=O)Nc2nc3c(s2)CN(C(=O)CCc2ccccc2)CC3)C1 [compound 459] | inhibition at 1.25 µM [2]: 72.7%
24 |  | N#CN1CC[C@@H](C(=O)Nc2nc3c(s2)CN(C(=O)CN2CCOCC2)CC3)C1 [compound 461] | inhibition at 1.25 µM [2]: 72.7%
25 | 68.5% | Cn1nccc1[C@@H]1OCCC[C@H]1C(=O)N1CCc2nc(NC(=O)[C@@H]3CCN(C#N)C3)sc2C1 [compound 80] | 
26 |  | N#CN1CC[C@@H](C(=O)Nc2nc3c(s2)CN(C(=O)CCN2C(=O)C=CC2=O)CC3)C1 [compound 398] | inhibition at 1.25 µM [2]: 65.7%
27 |  | N#CN1CC[C@@H](C(=O)Nc2nc3c(s2)CN(C(=O)C(c2ccccc2)n2cccc2)CC3)C1 (stereo partly shown) [compound 375] | inhibition at 1.25 µM [2]: 68.5%
28 |  | N#CN1CC[C@@H](C(=O)Nc2nc3c(s2)CN(C(=O)c2cnccn2)CC3)C1 [compound 402] | inhibition at 1.25 µM [2]: 85.1%
29 | 86.5% | Cc1nnnn1-c1cc(C(=O)N2CCc3nc(NC(=O)[C@@H]4CCN(C#N)C4)sc3C2)cc(C(F)(F)F)c1 [compound 87] | 
30 |  | N#CN1CC[C@@H](C(=O)Nc2nc3c(s2)CN(C(=O)c2ccccc2C=O)CC3)C1 [compound 432] | inhibition at 1.25 µM [2]: 57.9%
31 | 68.5% | Cc1onc(-c2ccccn2)c1C(=O)N1CCc2nc(NC(=O)[C@@H]3CCN(C#N)C3)sc2C1 [compound 176] | 
32 |  | CC(=O)N1CCC(C(=O)N2CCc3nc(NC(=O)[C@@H]4CCN(C#N)C4)sc3C2)CC1 [compound 475] | inhibition at 1.25 µM [2]: 68.5%
33 | 73.2% | Cc1nc(-c2ccsc2)ccc1C(=O)N1CCc2nc(NC(=O)[C@@H]3CCN(C#N)C3)sc2C1 [compound 296] | 
34 | 62.5% | CCS(=O)(=O)N1CCC(C(=O)N2CCc3nc(NC(=O)[C@@H]4CCN(C#N)C4)sc3C2)(c2ccccc2)CC1 [compound 150] | 
35 | 67.7% | COc1ccc(C(=O)N2CCc3nc(NC(=O)[C@@H]4CCN(C#N)C4)sc3C2)cc1S(=O)(=O)N(C)CCc1cccnc1 [compound 290] | 
36 |  | CCCN(CCC)S(=O)(=O)c1ccc(C(=O)N2CCc3nc(NC(=O)[C@@H]4CCN(C#N)C4)sc3C2)cc1 [compound 428] | inhibition at 1.25 µM [2]: 85.1%
37 | 85.9% | Cc1csc(N2CCCC(C(=O)N3CCc4nc(NC(=O)[C@@H]5CCN(C#N)C5)sc4C3)C2)n1 (stereo partly shown) [compound 142] | 
38 | 68.7% | N#CN1CC[C@@H](C(=O)Nc2nc3c(s2)CN(C(=O)CC2(n4cnnn4)CCOCC2)CC3)C1 [compound 226] | 
39 | 80.8% | N#CN1CC[C@@H](C(=O)Nc2nc3c(s2)CN(C(=O)CC(NS(=O)(=O)c2ccccc2)c2ccc(Cl)cc2)CC3)C1 (stereo partly shown) [compound 54] | 
40 | 64.2% | N#CN1CC[C@@H](C(=O)Nc2nc3c(s2)CN(C(=O)c2ccc(-c4ccncc4)[nH]c2=O)CC3)C1 [compound 330] | 
41 |  | N#CN1CC[C@@H](C(=O)Nc2nc3c(s2)CN(C(=O)Cc2ccc([N+](=O)[O-])cc2)CC3)C1 [compound 399] | inhibition at 1.25 µM [2]: 58.2%
42 | 67.6% | N#CN1CC[C@@H](C(=O)Nc2nc3c(s2)CN(C(=O)c2c[nH]nc2-c2cccnc2)CC3)C1 [compound 56] | 
43 | 81.4% | N#CN1CC[C@@H](C(=O)Nc2nc3c(s2)CN(C(=O)c2cc(S(=O)(=O)Nc4nccs4)ccc2F)CC3)C1 [compound 321] | 
44 | 68.1% | N#CN1CC[C@@H](C(=O)Nc2nc3c(s2)CN(C(=O)CC2=NN(c4ncc(C(F)(F)F)cc4Cl)C(=O)C2)CC3)C1 [compound 109] | 

Row | inhibition at 1.25 µM [1] | SMILES | also measured
45 | 65.2% | CCC(C(=O)N1CCc2nc(NC(=O)[C@@H]3CCN(C#N)C3)sc2C1)n1nnc(-c2ccsc2)n1 (stereo partly shown) [compound 25] | 
46 | 59.5% | N#CN1CC[C@@H](C(=O)Nc2nc3c(s2)CN(C(=O)c2ccc(OCc4ccncc4)cc2)CC3)C1 [compound 21] | 
47 | 57.9% | Cc1onc(C(=O)N2CCc3nc(NC(=O)[C@@H]4CCN(C#N)C4)sc3C2)c1CN1CCN(C)CC1 [compound 331] | 
48 | 78.3% | Cc1oc(-c2cccs2)nc1C(=O)N1CCc2nc(NC(=O)[C@@H]3CCN(C#N)C3)sc2C1 [compound 263] | 
49 |  | CC(C)(C)OC(=O)N[C@@H](Cc1cn(-c2ccc([N+](=O)[O-])cc2[N+](=O)[O-])cn1)C(=O)N1CCc2nc(NC(=O)[C@@H]3CCN(C#N)C3)sc2C1 [compound 409] | inhibition at 1.25 µM: 75.4%
50 | 69.8% | Cc1noc(C)c1S(=O)(=O)N1CCCC1C(=O)N1CCc2nc(NC(=O)[C@@H]3CCN(C#N)C3)sc2C1 (stereo partly shown) [compound 259] | 
51 | 86.9% | N#CN1CC[C@@H](C(=O)Nc2nc3c(s2)CN(C(=O)c2ccccc2OCc2cccs2)CC3)C1 [compound 325] | 
52 | 71.9% | N#CN1CC[C@@H](C(=O)Nc2nc3c(s2)CN(C(=O)CC2=NN(c4cccc(Cl)c4)C(=O)C2)CC3)C1 [compound 262] | 
53 | 86.7% | Cn1nc(C(=O)N2CCc3nc(NC(=O)[C@@H]4CCN(C#N)C4)sc3C2)cc1-c1cccnc1 [compound 172] | 
54 | 68.7% | N#CN1CC[C@@H](C(=O)Nc2nc3c(s2)CN(C(=O)c2ccccc2OCc2ccncc2)CC3)C1 [compound 45] | 
55 |  | N#CN1CC[C@@H](C(=O)Nc2nc3c(s2)CN(C(=O)C2CC(=O)NC(=O)N2)CC3)C1 (stereo partly shown) [compound 462] | inhibition at 1.25 µM [2]: 60.1%
56 | 72.7% | COc1cc(C(=O)N2CCc3nc(NC(=O)[C@@H]4CCN(C#N)C4)sc3C2)ccc1OCc1c(C)noc1C [compound 63] | 
57 |  | N#CN1CC[C@@H](C(=O)Nc2nc3c(s2)CN(C(=O)c2cnc(-c4cccnc4)s2)CC3)C1 [compound 368] | inhibition at 1.25 µM [2]: 69.2%
58 | 70.5% | Cc1nc(-c2c(C)c(C)nn(C)c2=O)sc1C(=O)N1CCc2nc(NC(=O)[C@@H]3CCN(C#N)C3)sc2C1 [compound 69] | 
59 | 76.7% | N#CN1CC[C@@H](C(=O)Nc2nc3c(s2)CN(C(=O)C2CN(C(=O)OCc4ccccc4)CCO2)CC3)C1 (stereo partly shown) [compound 216] | 
60 | 82.9% | N#CN1CC[C@@H](C(=O)Nc2nc3c(s2)CN(C(=O)c2occc2COc2ccccc2)CC3)C1 [compound 111] | 
61 | 70.5% | CC1CC1C(=O)N1CCCCC1C(=O)N1CCc2nc(NC(=O)[C@@H]3CCN(C#N)C3)sc2C1 (stereo partly shown) [compound 61] | 
62 | 53.7% | N#CN1CC[C@@H](C(=O)Nc2nc3c(s2)CN(C(=O)c2nc(OCC4CC4)ccc2Cl)CC3)C1 [compound 238] | 
63 |  | N#CN1CC[C@@H](C(=O)Nc2nc3c(s2)CN(C(=O)C2CCCN(c4ccc(Cl)nn4)C2)CC3)C1 (stereo partly shown) [compound 356] | inhibition at 1.25 µM [2]: 76.2%
64 | 45.6% | N#CN1CC[C@@H](C(=O)Nc2nc3c(s2)CN(C(=O)C(F)(F)n2cc(-c4ccccc4)nn2)CC3)C1 [compound 178] | 
